Experimental data taken from US6372804B1, “Noxious-insect repellent” (Kanebo, Ltd., priority 1991, dated 2002).
Values belong to the compound of their own block, whether it stands above or below them.

Legend:
[1] = solubility in a 90 wt. % ethanol aqueous solution; format: physicochemical; parameters: key: ◯: Soluble; X: Insoluble
Procedure: (§1) With the purpose of investigating the properties of the compounds to be used for the present invention, solubilities in a 90 wt. % ethanol aqueous solution and stabilities at 0° C., room temperature and 40° C., of hydroxymethyl-menthol, 2-hydroxymethyl-2-butyl-cyclopentanol and 2-(1-hydroxyisopropyl)-5,6-dimethyl-cyclohexanone, were investigated. […] Furthermore, it can be understood that the quantity of the repellent compound is preferred to be at most 20% by weight, in view of touch in use.

[2] = stability in a 90 wt. % ethanol aqueous solution at 0° C., room temperature and 40° C.; format: physicochemical; parameters: key: ◯: Stable; X: Precipitated
Procedure: as §1

[3] = tested on: imagoes of the tiger mosquito, Aedes albopictus; assay: noxious-insect repellency test (treated forearm in a cage of tiger mosquitoes, percent repellency from biting marks); format: in vivo; conditions: for Percent repellency: an hour after application; for noxious-insect repelling effect and durability (result in words): lotion or milky lotion containing the compound, tiger mosquito imagoes
Procedure: In each example, the noxious-insect repellency test was conducted as follows:
Test method of noxious-insect repelling effect and durability thereof In order to assess the repelling effect against imagoes of the tiger mosquito, Aedes albopictus, the following test was conducted at a room temperature of 30° C. and a relative humidity of 70% in an air-conditioned room. 10 ml each of test samples was applied to left and right forearms. Each treated forearm was introduced into a wire gauze cage (20 cm L.×15 cm Dia.) containing 50 female and 50 male tiger mosquitoes 5-7 days old after eclosion, for 15 minutes to afford time for biting. The assessment was repeated 30 minutes, 1 hour, 2 hours, 4 hours and 6 hours after the test sample was applied. The number of marks made by biting within each biting time was counted and a percent repellency was calculated using the following formula:
Percent repellency=(X−Y)/X×100 (%)
X: the number of the marks made by biting when the test sample was not applied,
Y: the number of the marks made by biting when the test sample was applied.

[4] = 0° C., content 10% (wt. %) in 90 wt. % ethanol aqueous solution
[5] = 0° C., content 20% (wt. %) in 90 wt. % ethanol aqueous solution
[6] = 0° C., content 50% (wt. %) in 90 wt. % ethanol aqueous solution
[7] = 0° C., content 90% (wt. %) in 90 wt. % ethanol aqueous solution
[8] = 0° C., content 95% (wt. %) in 90 wt. % ethanol aqueous solution
[9] = 40° C., content 10% (wt. %) in 90 wt. % ethanol aqueous solution
[10] = 40° C., content 20% (wt. %) in 90 wt. % ethanol aqueous solution
[11] = 40° C., content 50% (wt. %) in 90 wt. % ethanol aqueous solution
[12] = 40° C., content 90% (wt. %) in 90 wt. % ethanol aqueous solution
[13] = 40° C., content 95% (wt. %) in 90 wt. % ethanol aqueous solution
[14] = room temperature, content 10% (wt. %) in 90 wt. % ethanol aqueous solution
[15] = room temperature, content 20% (wt. %) in 90 wt. % ethanol aqueous solution
[16] = room temperature, content 50% (wt. %) in 90 wt. % ethanol aqueous solution
[17] = room temperature, content 90% (wt. %) in 90 wt. % ethanol aqueous solution
[18] = room temperature, content 95% (wt. %) in 90 wt. % ethanol aqueous solution

Solubility [1, 4]: ◯ | Solubility [1, 5]: ◯ | Solubility [1, 6]: ◯ | Solubility [1, 7]: ◯ | Solubility [1, 8]: ◯ | Solubility [1, 9]: ◯ | Solubility [1, 10]: ◯ | Solubility [1, 11]: ◯ | Solubility [1, 12]: ◯ | Solubility [1, 13]: ◯ | Solubility [1, 14]: ◯ | Solubility [1, 15]: ◯ | Solubility [1, 16]: ◯ | Solubility [1, 17]: ◯ | Solubility [1, 18]: ◯ | Stability [2, 4]: ◯ | Stability [2, 5]: ◯ | Stability [2, 6]: ◯ | Stability [2, 7]: ◯ | Stability [2, 8]: X | Stability [2, 9]: ◯ | Stability [2, 10]: ◯ | Stability [2, 11]: ◯ | Stability [2, 12]: ◯ | Stability [2, 13]: ◯ | Stability [2, 14]: ◯ | Stability [2, 15]: ◯ | Stability [2, 16]: ◯ | Stability [2, 17]: ◯ | Stability [2, 18]: X
Compound: CCCCC1(CO)CCCC1O (centres unmarked) [2-Hydroxymethyl-2-butyl-cyclopentanol, 2-hydroxymethyl-2-butyl-cyclopentanol]
Percent repellency ([3]; content 0.1% (wt. %) in 40 wt. % ethanol aqueous solution): 24% | Percent repellency ([3]; content 1% (wt. %) in 40 wt. % ethanol aqueous solution): 60% | Percent repellency ([3]; content 3% (wt. %) in 40 wt. % ethanol aqueous solution): 88%

Compound: p-menthane-2-ethyl-3,8-diol
noxious-insect repelling effect and durability (result in words) [3]: excellent noxious-insect repelling effect and durability

Compound: p-menthane-2-hexyl-3,8-diol
noxious-insect repelling effect and durability (result in words) [3]: excellent noxious-insect repelling effect and durability
